The record followed here is EP0368576B1, “Insecticide comprising a suspension of microcapsules containing chlorpyrifos” (priority 1988, dated 1990).

The nature of series [1]: Test of the release property in soil. In kind it is physicochemical. The settings on record: sand soil, 65 days; rate based on the original amount. As for the experimental part: 7.5 g of the encapsulated insecticide produced in Example 2 was dispersed in 100 mℓ of water, and 1 mℓ of the dispersion was added to 30 g of soil (sand soil of Mt. Kannan) which had been put into a 100-mℓ beaker, and thoroughly mixed therewith.
Separately from this, 1500 mg of the chlorpyrifos was dissolved into 100 mℓ of acetone and 1 mℓ of the solution was added to 30 g of soil (same as above) and thoroughly mixed therewith.
The beaker was covered with aluminium foil, and water was sometimes sprayed on the soil to prevent the soil from drying. 65 days after, the amount of chlorpyrifos in the beaker was measured.
In order to measure the total amount of chlorpyrifos, 150 mℓ of acetone and 2 mℓ of concentrated hydrochloric acid was added to 30 g of the soil. The mixture was refluxed under heating in a water bath at 65°C for 1 hour, and after cooling filtered through No. 5C filter paper. The residue was further washed with 100 mℓ of acetone, and diluted so that the total volume was 250 mℓ to measure the amount of chlorpyrifos by high-speed liquid chromatography.
The amount of chlorpyrifos liberated was measured in the following manner. A mixture solvent of methanol and water (60/40) was added to 30 g of the soil. After the mixture was shaken for 10 minutes, the mixture was filtered through No. 5C filter paper. […]

The nature of series [2]: Acute dermal toxicity test. The settings on record: Wistar, rat, in vivo, topical or ocular, Wister male rats (8 weeks old), read-out: Acute dermal toxicity LD₅₀. As for the experimental part: (§1) Tests of the acute oral toxicity and the acute dermal toxicity of the encapsulated insecticide produced in Example 2 and the acute toxicity thereof to fish were carried out as follows.
(§2) A group of 5 ICR male mice (5 weeks old) and a group of 5 Wister male rats (8 weeks old) were used for the acute oral toxicity test and the acute dermal toxicity test, respectively. Tests were carried out to obtain LD₅₀ values in accordance with the toxicity guidance of agricultural chemicals (Agricultural production No. 59 - 4200) (Notification of Director-General, Agricultural Production Bureau, 59 Nohsan No. 4200 dated January 28, 1985) issued by the Agricultural and Fisheries Ministry. The test for acute toxity to fish was carried out using groups of carp, each group consisting of 10 carp, in accordance with the Circular Notice No. 2735 issued by Director of the Agricultural Administration Bureau in the Agricultural and Fisheries Ministry to obtain the TLm of each group.

Another series is described as follows: Acute oral toxicity test. The settings on record: mouse, in vivo, ICR male mice (5 weeks old), read-out: Acute oral toxicity LD₅₀. As for the experimental part:
as §1, §2

Another series has as its system carp. The series can be described thus: Acute toxicity to fish. The format is in vivo. As for the experimental part: as §1, §2

For the compound `CCOP(=S)(OCC)Oc1nc(Cl)c(Cl)cc1Cl` [Technical, 0,0-diethyl-0-3,5,6-trichloro-2-pyridyl-phosphorothioate], in series [1], the “Amount of chlorpyrifos remaining in the soil: Total amount of chlorpyrifos” value is listed as 41 wt%. The LD50 in series [2] was determined as 202 mg/kg; in “Acute oral toxicity test”, 178 mg/kg. In addition, the “Toxicity to fish TLm (48 h)” value with carp is 0.13 ppm.
